Reference: patent US20080275058A1, “N-Substituted-1H-Quinoline-2,4-Diones, Preparation Method Thereof, And Pharmaceutical Composition Containing The Same” (KOREA RESEARCH INSTITUTE OF CHEMICAL TECHNOLOGY, priority 2005, published 2008)
Where two headings read alike, the source gives them in different places.

Legend:
rat = details: cited from earlier work
rats [1] = details: cited from earlier work
rats [2] = details: cited from earlier work; remark: listed apart in the source
rats [3] = details: water maze; cited from earlier work
[4] = in vivo; cited from earlier work
5-HT6 receptors [5] = biological target: T1, 5-HT6 receptors (Homo sapiens, UniProt P50406); details: background literature, cited from earlier work; for affinity at 5-HT6 receptors, in words: antipsychotics
[6] = biological target: T2, Human serotonin 5-HT6 receptor (Homo sapiens, UniProt P50406); assay: [3H]LSD binding assay on cloned 5-HT6 receptor membranes
T2 construct: made in house; host or cells: insect Sf21 cells (baculovirus vector BacPAK8)

5-HT7 = biological target: T3, 5-HT7 (Homo sapiens, UniProt P34969); assay: Radioligand binding, 5-HT7 ([3H]LSD); details: Table 4; [3H]LSD 3 nM; read-out: Binding affinity, IC50 (nM) 5-HT7
T3 construct: purchased Euroscreen/BioSignal Packard Inc

5-HT1a = biological target: T4, 5-HT1a (Homo sapiens, UniProt P08908); assay: Radioligand binding, 5-HT1a ([3H]8-OH-DPAT); details: Table 4; [3H]8-OH-DPAT 0.5 nM; read-out: Binding affinity, IC50 (nM) 5-HT1a
T4 construct: purchased Euroscreen/BioSignal Packard Inc
T4 sequence (P08908 1-422): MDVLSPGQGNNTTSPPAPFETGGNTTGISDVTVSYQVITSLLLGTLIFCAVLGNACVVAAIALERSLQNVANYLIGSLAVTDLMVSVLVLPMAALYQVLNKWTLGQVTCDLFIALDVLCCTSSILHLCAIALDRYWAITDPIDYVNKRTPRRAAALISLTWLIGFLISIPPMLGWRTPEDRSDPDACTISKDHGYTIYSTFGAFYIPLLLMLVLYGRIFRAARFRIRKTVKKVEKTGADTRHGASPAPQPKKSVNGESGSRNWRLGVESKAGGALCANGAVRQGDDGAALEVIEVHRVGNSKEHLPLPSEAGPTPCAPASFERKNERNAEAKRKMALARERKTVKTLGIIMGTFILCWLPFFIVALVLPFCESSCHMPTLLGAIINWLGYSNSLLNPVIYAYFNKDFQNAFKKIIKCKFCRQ
Method in brief: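 Membranes bearing the receptor, bought in; radioligand displacement run per supplier protocol.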

5-HT2a = biological target: T5, 5-HT2a (Homo sapiens, UniProt P28223); assay: Radioligand binding, 5-HT2a ([3H]Ketanserin); details: Table 4; [3H]Ketanserin 1 nM; read-out: Binding affinity, IC50 (nM) 5-HT2a
T5 construct: purchased Euroscreen/BioSignal Packard Inc

5-HT2c = biological target: T6, 5-HT2c (Homo sapiens, UniProt P28335); assay: Radioligand binding, 5-HT2c ([3H]Mesulergine); details: Table 4; [3H]Mesulergine 1 nM; read-out: Binding affinity, IC50 (nM) 5-HT2c
T6 construct: purchased Euroscreen/BioSignal Packard Inc
T6 sequence (P28335 33-458): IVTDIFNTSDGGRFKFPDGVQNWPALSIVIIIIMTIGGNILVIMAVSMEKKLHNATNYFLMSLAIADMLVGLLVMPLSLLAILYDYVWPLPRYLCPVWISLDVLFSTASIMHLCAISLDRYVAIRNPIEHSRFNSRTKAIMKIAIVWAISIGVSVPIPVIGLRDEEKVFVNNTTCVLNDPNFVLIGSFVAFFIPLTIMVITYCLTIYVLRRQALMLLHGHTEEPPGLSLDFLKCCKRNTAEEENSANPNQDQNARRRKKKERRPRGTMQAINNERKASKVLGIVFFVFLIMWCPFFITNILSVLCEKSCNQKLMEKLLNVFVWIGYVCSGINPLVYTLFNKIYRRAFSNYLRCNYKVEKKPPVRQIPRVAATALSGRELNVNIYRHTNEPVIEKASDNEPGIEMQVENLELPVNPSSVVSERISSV

D1 = D1 (Homo sapiens, UniProt P21728); assay: Radioligand binding, dopamine D1; details: Table 4; read-out: Binding affinity, IC50 (nM) D1
hD2L = biological target: T7, hD2L (Homo sapiens, UniProt P14416); assay: Radioligand binding, dopamine D2 ([3H]spiperone); details: Table 4; [3H]spiperone 1 nM; read-out: Binding affinity, IC50 (nM) D2
T7 construct: purchased BioSignal Packard Inc., Montreal, Canada
Method in brief: (§1)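 IC50 values come from nonlinear fits of three displacement experiments, each using 7-8 test concentrations in duplicate. D2L and D3 membranes were labelled with 1 nM [3H]spiperone, and D4.2 with 0.06 nM [3H]YM-09151-2. All assays used pH 7.4 Tris buffers, with the D3 buffer adding 120 mM NaCl, KCl and CaCl2.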

hD3 = biological target: T8, hD3 (Homo sapiens, UniProt P35462); assay: Radioligand binding, dopamine D3 ([3H]spiperone); details: Table 4; [3H]spiperone 1 nM; read-out: Binding affinity, IC50 (nM) D3
T8 construct: purchased BioSignal Packard Inc., Montreal, Canada
Method in brief: as §1

hD4.2 receptor = biological target: T9, hD4.2 receptor (Homo sapiens, UniProt P21917, DEL265-296); assay: Radioligand binding, dopamine D4 ([3H]YM-09151-2); details: Table 4; [3H]YM-09151-2 0.06 nM; read-out: Binding affinity, IC50 (nM) D4
T9 construct: purchased BioSignal Packard Inc., Montreal, Canada
T9 sequence (P21917 with tags, fused parts or gaps DEL265-296): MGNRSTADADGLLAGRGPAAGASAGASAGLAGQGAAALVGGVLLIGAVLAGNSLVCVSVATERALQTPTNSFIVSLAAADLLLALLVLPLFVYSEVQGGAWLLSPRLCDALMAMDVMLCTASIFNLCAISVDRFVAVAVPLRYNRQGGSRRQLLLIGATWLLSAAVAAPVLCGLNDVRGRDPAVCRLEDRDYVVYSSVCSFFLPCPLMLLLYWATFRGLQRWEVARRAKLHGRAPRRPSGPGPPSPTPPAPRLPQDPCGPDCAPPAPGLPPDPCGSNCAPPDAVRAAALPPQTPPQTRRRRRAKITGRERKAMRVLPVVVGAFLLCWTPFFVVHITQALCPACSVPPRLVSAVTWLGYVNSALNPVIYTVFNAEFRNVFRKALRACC
Method in brief: as §1

Rotarod deficit in mice = assay type: in vivo, mouse; details: mouse, in vivo, po, unit printed as image, read-out: TD50 (median neurotoxic dose)
Method in brief: (§2)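 Compounds suspended in 3% Tween 80 were given p.o. to mice 60 min before testing. Rotarod deficit (%) was the proportion of animals falling within 1 min from a 1 inch knurled rod turning at 6 rpm, scored at 60, 90 and 120 min after dosing.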

mice = assay: Rotarod deficit in mice; assay type: in vivo, mouse
Method in brief: as §2

5-HT6 receptors [7] = biological target: T1, 5-HT6 receptors; details: human 5-HT6 receptors, background literature; cited from earlier work
[8] = Table 2, 1.87 nM [3H]LSD, 37 C, 60 min, read-out: IC50 (nM), binding affinity to the 5-HT6 receptor
[9] = Table 4, read-out: Binding affinity, IC50 (nM) 5-HT6

T1 sequence (P50406 whole entry): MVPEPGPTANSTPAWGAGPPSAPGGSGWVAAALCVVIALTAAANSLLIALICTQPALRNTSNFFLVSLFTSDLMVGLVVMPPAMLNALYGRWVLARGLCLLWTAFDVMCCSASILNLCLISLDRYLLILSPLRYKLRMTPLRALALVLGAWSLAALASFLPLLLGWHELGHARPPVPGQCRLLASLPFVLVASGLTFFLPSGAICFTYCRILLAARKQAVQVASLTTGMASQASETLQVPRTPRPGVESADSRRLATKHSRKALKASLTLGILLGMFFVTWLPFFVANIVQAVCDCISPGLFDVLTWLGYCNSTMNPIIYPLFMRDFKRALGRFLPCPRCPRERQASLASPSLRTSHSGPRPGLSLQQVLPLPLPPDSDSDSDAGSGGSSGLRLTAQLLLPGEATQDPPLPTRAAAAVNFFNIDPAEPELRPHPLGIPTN
T2 sequence (P50406 whole entry): as above
T3 sequence (P34969 whole entry): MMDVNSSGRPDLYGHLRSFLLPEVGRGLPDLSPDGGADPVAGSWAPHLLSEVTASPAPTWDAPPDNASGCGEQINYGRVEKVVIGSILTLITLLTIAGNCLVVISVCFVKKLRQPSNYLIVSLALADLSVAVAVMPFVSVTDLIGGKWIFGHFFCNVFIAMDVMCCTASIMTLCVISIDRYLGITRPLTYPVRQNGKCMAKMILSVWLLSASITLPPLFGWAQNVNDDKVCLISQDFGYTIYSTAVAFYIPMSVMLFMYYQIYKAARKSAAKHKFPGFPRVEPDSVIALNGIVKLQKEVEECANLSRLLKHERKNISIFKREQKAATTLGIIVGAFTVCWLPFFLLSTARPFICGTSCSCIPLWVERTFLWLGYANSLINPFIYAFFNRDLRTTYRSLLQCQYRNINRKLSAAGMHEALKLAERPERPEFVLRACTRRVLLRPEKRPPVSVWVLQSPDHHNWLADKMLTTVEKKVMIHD
T5 sequence (P28223 whole entry): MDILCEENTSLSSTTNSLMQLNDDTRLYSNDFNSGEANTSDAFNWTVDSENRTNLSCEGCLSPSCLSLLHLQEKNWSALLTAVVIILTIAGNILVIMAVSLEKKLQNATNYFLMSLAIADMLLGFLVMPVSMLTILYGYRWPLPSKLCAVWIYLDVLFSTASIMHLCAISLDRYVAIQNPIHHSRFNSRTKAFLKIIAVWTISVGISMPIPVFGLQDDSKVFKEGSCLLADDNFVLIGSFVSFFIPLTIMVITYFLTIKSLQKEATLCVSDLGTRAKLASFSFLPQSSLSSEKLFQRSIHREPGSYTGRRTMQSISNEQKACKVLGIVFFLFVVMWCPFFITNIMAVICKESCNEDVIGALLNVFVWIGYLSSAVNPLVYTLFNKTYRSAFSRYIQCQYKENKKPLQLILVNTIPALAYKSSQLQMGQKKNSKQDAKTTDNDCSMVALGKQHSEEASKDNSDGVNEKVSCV
T7 sequence (P14416 whole entry): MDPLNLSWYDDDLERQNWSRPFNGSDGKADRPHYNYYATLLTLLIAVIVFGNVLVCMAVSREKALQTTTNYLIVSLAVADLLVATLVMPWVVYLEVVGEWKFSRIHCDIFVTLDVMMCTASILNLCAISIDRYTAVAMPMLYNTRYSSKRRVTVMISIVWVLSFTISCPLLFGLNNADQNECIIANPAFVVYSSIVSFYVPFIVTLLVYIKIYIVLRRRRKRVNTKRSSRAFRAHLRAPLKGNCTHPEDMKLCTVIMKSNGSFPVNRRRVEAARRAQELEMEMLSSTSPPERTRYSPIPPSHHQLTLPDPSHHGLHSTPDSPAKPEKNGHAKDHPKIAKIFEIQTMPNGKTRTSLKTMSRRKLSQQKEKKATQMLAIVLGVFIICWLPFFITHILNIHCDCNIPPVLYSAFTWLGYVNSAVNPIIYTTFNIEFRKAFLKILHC
D1, sequence (P21728 whole entry): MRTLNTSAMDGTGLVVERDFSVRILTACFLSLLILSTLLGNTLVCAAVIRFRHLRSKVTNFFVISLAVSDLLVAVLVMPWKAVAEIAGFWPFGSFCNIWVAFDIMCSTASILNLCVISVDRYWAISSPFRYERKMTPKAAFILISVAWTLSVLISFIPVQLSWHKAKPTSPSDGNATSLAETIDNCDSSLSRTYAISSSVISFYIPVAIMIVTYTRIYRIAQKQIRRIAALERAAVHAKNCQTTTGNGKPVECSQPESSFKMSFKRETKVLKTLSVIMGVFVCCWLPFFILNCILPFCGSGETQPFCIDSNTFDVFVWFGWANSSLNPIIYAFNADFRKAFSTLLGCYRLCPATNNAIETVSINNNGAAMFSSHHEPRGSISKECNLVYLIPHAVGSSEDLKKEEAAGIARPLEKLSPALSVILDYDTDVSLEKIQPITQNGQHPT
T8 sequence (P35462 whole entry): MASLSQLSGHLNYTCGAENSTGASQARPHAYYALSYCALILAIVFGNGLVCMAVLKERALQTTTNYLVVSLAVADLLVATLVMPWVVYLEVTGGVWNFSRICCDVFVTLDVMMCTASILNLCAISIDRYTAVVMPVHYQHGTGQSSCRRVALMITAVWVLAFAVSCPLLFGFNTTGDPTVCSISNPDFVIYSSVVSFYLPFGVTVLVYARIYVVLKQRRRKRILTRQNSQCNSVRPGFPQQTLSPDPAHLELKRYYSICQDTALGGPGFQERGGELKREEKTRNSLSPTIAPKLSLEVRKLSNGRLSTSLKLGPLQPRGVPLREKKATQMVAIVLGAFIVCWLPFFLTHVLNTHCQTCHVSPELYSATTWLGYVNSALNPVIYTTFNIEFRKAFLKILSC

| SMILES | IC50 [6, 8] [nM] | IC50 [6, 9] [nM] | IC50 (5-HT7) [nM] | IC50 (5-HT1a) [nM] | IC50 (5-HT2a) [nM] | IC50 (5-HT2c) [nM] | IC50 (D1) [nM] | IC50 (hD2L) [nM] | IC50 (hD3) [nM] | IC50 (hD4.2 receptor) [nM] | TD50 at 120 min (Rotarod deficit in mice) [mg/kg] | Rotarod deficit (%) (mice; 200 p.o. (dose unit not given)) | Rotarod deficit (%) (mice; 300 p.o. (dose unit not given)) | Rotarod deficit (%) (mice; 400 p.o. (dose unit not given)) | melting point [°C] | also measured |
| --- | --- | --- | --- | --- | --- | --- | --- | --- | --- | --- | --- | --- | --- | --- | --- | --- |
| CNc1cc(NS(=O)(=O)c2ccc(N)cc2)nc(NC)n1 [Ro 04-6790] |  |  |  |  |  |  |  |  |  |  |  |  |  |  |  | anticonvulsant activity (rat; background literature): possess anticonvulsant activity; food intake (rats [1]): decreased food intake; induction of behavior of yawning, stretching, and chewing (rats [2]): capable of inducing this same effect |
| COc1ccc(S(=O)(=O)Nc2cc(Br)cc(F)c2Br)cc1N1CCNCC1 [SB-357134] |  |  |  |  |  |  |  |  |  |  |  |  |  |  |  | retention of a previously learned task (rats [3]): significant improvement; seizure threshold (rat; rat maximal electroseizure threshold, oral administration): potent and dose-dependent increase; clearance and bioavailability, in words [4]: low clearance rate and excellent oral bioavailability |
| CN(C)CCCN1c2ccccc2Sc2ccc(Cl)cc21 [chlorpromazine] |  |  |  |  |  |  |  |  |  |  |  |  |  |  |  | affinity at 5-HT6 receptors, in words (5-HT6 receptors [5]): bind with high affinity |
| CNc1cc(NS(=O)(=O)c2ccc(N)cc2)cc(NC)n1 [Ro 63-0563] |  |  |  |  |  |  |  |  |  |  |  |  |  |  |  | Ki (5-HT6 receptors [5]): 12 nM |
| CN(C)CC/C=C1/c2ccccc2Sc2ccc(Cl)cc21 [chlorprothixene] |  |  |  |  |  |  |  |  |  |  |  |  |  |  |  | affinity at 5-HT6 receptors, in words (5-HT6 receptors [5]): bind with high affinity |
| CC1(c2ccc(O)cc2)C(=O)c2c(N3CCNCC3)cc(Cl)cc2N(Cc2cccc(O)c2)C1=O (centres unmarked) [Example 28, 7-Chloro-1-(3-hydroxy-benzyl)-3-(4-hydroxy-phenyl)-3-methyl-5-piperazin-1-yl-1H-quinoline-2,4-dione] | 3 | 3 | > 10000 | > 10000 | > 10000 | > 10000 | > 10000 | > 10000 | > 1000 | > 10000 | > 400 | 0 | 0 | 0 | 229 to 230 |  |
| CN1CCN(c2cc(Cl)cc3c2C(=O)C(C)(c2ccccc2)C(=O)N3Cc2ccccc2)CC1 (centres unmarked) [Example 11, 1-Benzyl-7-chloro-3-methyl-5-(4-methyl-piperazin-1-yl)-3-phenyl-1H-quinoline-2,4-dione] | 1.4 | 1.4 | 2200 | 2590 | 1230 | 514 | 4670 | 844 | 678 | > 10000 | > 400 | 0 | 0 | 0 | 138 to 140 | binding affinity at 5-HT6 receptor labeled by [3H]LSD, in words ([6]; comment on Table 2): significant affinities |
| CN1CCN(c2cc(Cl)cc3c2C(=O)C(C)(c2ccc([N+](=O)[O-])cc2)C(=O)N3Cc2ccccc2)CC1 (centres unmarked) [Example 3, 1-Benzyl-7-chloro-3-methyl-5-(4-methyl-piperazin-1-yl)-3-(4-nitro-phenyl)-1H-quinolin-2,4-dione] | 4.7 | 4.7 | 4570 | 5730 | 1540 | > 10000 | 814 | > 10000 | 360 | > 10000 | > 400 | 0 | 0 | 0 | 179 to 180 |  |
| CN1CCN(c2cc(Cl)cc3c2C(=O)C(C)(c2ccc(O)cc2)C(=O)N3Cc2ccccc2)CC1 (centres unmarked) [Example 2, 1-Benzyl-7-chloro-3-(4-hydroxy-phenyl)-3-methyl-5-(4-methyl-piperazin-1-yl)-1H-quinoline-2,4-dione] | 2.5 | 2.5 | 920 | > 10000 | 2620 | 487 | 4970 | > 10000 | 589 | > 10000 | > 400 | 0 | 0 | 0 | 258 to 259 |  |
| COc1ccc2c(c1)c(CCN(C)C)cn2S(=O)(=O)c1ccccc1 [MS-245] |  |  |  |  |  |  |  |  |  |  |  |  |  |  |  | pA2, antagonist (5-HT6 receptors [7]): 8.88 |
